Tests used:
[1] = test system: Trypanosoma cruzi; assay: GSK_TCAKS: pIC50 Trypanosoma cruzi viability assay using beta-GAL activity. This assay was run at single shot at 5uM compound concentration per well. The biological reagents consisted of NIH-3T3 host cells and trypomastigotes parasitic cells; both cell types were set to a 3.3 * 10^5 cells/mL dilution in assay DMEM by means of a CASY cell counter device using a 60um capillary. 6 uL of the mixture were dispensed per well (about 1 * 10^3 host-cells and 1 * 10^3 parasites) with a Multidrop Combi dispenser. […] In all wells, the percentage of DMSO never exceeded 0.5%. Plates incubated for four days at 37C, 5% CO2. The substrate used for the assay fluorescence intensity (FLINT) readout was resorufin-beta-D-galactopiranoside (Sigma-Aldrich) at 5uM per well. It was diluted in PBS supplemented with the soft detergent Igepal (Fluka).; assay type: functional, organism-based, Mus musculus; settings: Tulahuen, NIH3T3
[2] = test system: Trypanosoma cruzi; assay: (§1) GSK_TCAKS: pIC50 Trypanosoma cruzi Imaging: Infected Cells. […] Cells were then washed once with PBS before infection. T. cruzi trypomastigotes, collected at days 5 to 8 after infection from LLC-MK2 parasite infected cultures, were allowed to swim out for 4h at 37C from a centrifuged pellet (2,500 rpm/10 min/room temperature). Trypomastigotes were then collected and counted in a CASY Cell Counter. Trypomastigotes, in supplemented DMEM, were added to H9c2 cultures in a multiplicity of infection of 1 and incubated for 18 h. Cells were washed once with PBS before incubation of the infected H9c2 monolayer with trypsin (Life-Technologies) to detach cells from the flask. Cells were counted in a CASY Cell Counter using a 150 um capillary and their density set at 5 * 10^4 cells per mL in supplemented assay DMEM. Infected H9c2 were dispensed into 384-well poly-lysine coated assay plates at 50uL per well using a Multidrop Combi dispenser. After seeding them, the plates were incubated at 37C, 5% CO2 for 72h. Cultures were then fixed and stained by addition of 50 uL of a solution containing 8% formaldehyde and 4 uM DRAQ5 DNA dye (BioStatus, UK) per well. […] Five images were collected per well for reliable statistical analysis. Automated image analysis was performed with a script developed on Acapella High Content Imaging and Analysis Software (PerkinElmer). Output: percentage of infected cells per well as a second infection marker.; assay type: functional, organism-based, Rattus norvegicus; settings: H9c2, 4 h
[3] = test system: Trypanosoma cruzi; assay: GSK_TCAKS: pIC50 Trypanosoma cruzi Imaging: Amastigotes/Cell. […] Cells were then washed once with PBS before infection. T. cruzi trypomastigotes, collected at days 5 to 8 after infection from LLC-MK2 parasite infected cultures, were allowed to swim out for 4h at 37C from a centrifuged pellet (2,500 rpm/10 min/room temperature). Trypomastigotes were then collected and counted in a CASY Cell Counter. Trypomastigotes, in supplemented DMEM, were added to H9c2 cultures in a multiplicity of infection of 1 and incubated for 18 h. Cells were washed once with PBS before incubation of the infected H9c2 monolayer with trypsin (Life-Technologies) to detach cells from the flask. Cells were counted in a CASY Cell Counter using a 150 um capillary and their density set at 5 * 10^4 cells per mL in supplemented assay DMEM. Infected H9c2 were dispensed into 384-well poly-lysine coated assay plates at 50uL per well using a Multidrop Combi dispenser. After seeding them, the plates were incubated at 37C, 5% CO2 for 72h. Cultures were then fixed and stained by addition of 50 uL of a solution containing 8% formaldehyde and 4 uM DRAQ5 DNA dye (BioStatus, UK) per well. […] Five images were collected per well for reliable statistical analysis. Automated image analysis was performed with a script developed on Acapella High Content Imaging and Analysis Software (PerkinElmer). Output: number of amastigotes per cell as infection level measurement.; assay type: functional, organism-based, Rattus norvegicus; settings: H9c2, 4 h
[4] = test system: Trypanosoma cruzi; assay: as §1, with “H2C9” for “Trypanosoma cruzi”, “H9c2 Host Cardiomyocytes.” for “Infected Cells.”, “Number” for “percentage”, “H9c2 Host Cardiomyocytes nuclei to determine drug-related cytotoxicity.” for “infected cells per well as a second infection marker.”; assay type: functional, organism-based, Rattus norvegicus; settings: H9c2, 4 h
[5] = test system: Leishmania donovani; assay: GSK_TCAKS: pIC50 Leishmania donovani viability assay using fluorescence intensity. Assay plates (1536-well) were prepared by adding 30nL per well of compound. For single shot assay, the final compound concentration was 5uM. […] Briefly, eGFP LdBOB axenic amastigotes were harvested, fixed and counted in a CASY cell counter (Roche-Applied Science). A final concentration of 1.5 * 10^5 cells per well were prepared in amastigote media containing 500 U/mL penicillin/streptomycin (Invitrogen) and 6uL was dispensed to each experimental well using a Multidrop Combi dispenser (Thermo Scientific). 6uL of assay media was dispensed to control columns used as reference for 100% compound response. Following incubation for 72 h at 37C, 5% CO2, 2 uL of resazurin was added to each well at a final concentration of 0.5 mM in phosphate buffered saline (PBS) with IGEPAL (Sigma-Aldrich), 0.05% (v/v).; assay type: functional, organism-based
[6] = test system: Leishmania donovani; assay: (§2) GSK_TCAKS: pIC50 Leishmania donovani Imaging: Infected Macrophages. Assay plates (384-well) were prepared by adding 250nL of compound to each well. For single shot assay, the final compound concentration was 5 uM. […] Automated image analysis was performed with a script developed on Acapella High Content Imaging and Analysis Software (PerkinElmer). Output: Percent of infected macrophage cells were reported for each well.; assay type: functional, organism-based, Homo sapiens; settings: THP-1
[7] = test system: Leishmania donovani; assay: as §2, with “Amastigotes/Macrophages.” for “Infected Macrophages.”, “Average number” for “Percent”, “amastigotes per” for “infected”, “cell” for “cells”; assay type: functional, organism-based, Homo sapiens; settings: THP-1
[8] = test system: Leishmania donovani; assay: as §2, with “THP-1 Host” for “Infected”, “THP-1 cell count” for “Percent of infected macrophage cells”; assay type: functional, organism-based, Homo sapiens
[9] = test system: Trypanosoma brucei brucei; assay: GSK_TCAKS: pIC50 Trypanosoma brucei viability assay using fluorescence intensity. Assay plates (1536-well) were prepared by dispensing 25nL of compound solution per well using an Echo acoustic dispenser (Labcyte).; assay type: functional, organism-based; settings: Lister 427, 2 h
[10] = test system: Trypanosoma brucei brucei; assay: GSK_TCAKS: pIC50 Trypanosoma brucei viability assay using luminiscence. Assay plates (1536-well) were prepared. T. brucei cultures were harvested and counted in a CASY cell counter. A parasite suspension was prepared at a final concentration of 5 * 10^4 cells/mL in complete HMI9 medium and 6uL was dispensed to all wells containing compounds using a Multidrop Combi dispenser. 6uL of HMI9 media with 0.4% DMSO were dispensed to control columns. Plates were incubated for 24 h at 37C, 5% CO2 then tempered for 10 min at room temperature. ATP content was quantified by adding 4 uL of CellTiter-Glo Reagent (Promega) according to the manufacturer's instructions. Luminescence was measured using a ViewLux.; assay type: functional, organism-based; settings: Lister 427, CASY
[11] = GSK_TCAKS: pIC50 HepG2 human cell line viability assay using luminiscence. […] Seeding density was checked to ensure that new mono-layers were not more than 50% confluent at the time of harvesting. Cell suspension was added to 500 mL of the same medium at a final density of 1.2 * 10^5 cells/mL. This cell suspension was dispensed (25 uL, 3000 cells per well) into 384-well clear-bottom plates using a Multidrop Combi dispenser. Prior to addition of the cell suspension, the screening compounds (250 nL) were pre-dispensed into the plates with an Echo liquid handler. Plates were incubated for 48 h at 37C, 5% CO2. After incubation, plates equilibrated at room temperature for 30 min before proceeding to develop the luminescent signal. The signal developer, CellTiter-Glo Reagent, was allowed to equilibrate at room temperature for 30 min and added to the plates (25uL per well) using a Multidrop Combi dispenser. Plates were left for 10 min at room temperature for stabilization and then read using a ViewLux.; assay type: toxicity, cell-based
[12] = molecular target: Sterol 14-alpha demethylase (Trypanosoma cruzi (strain CL Brener), UniProt Q7Z1V1); assay: GSK_TCAKS: pIC50 CYP51 from Trypanosoma cruzi.; assay type: functional
Sterol 14-alpha demethylase, sequence (Q7Z1V1 whole entry): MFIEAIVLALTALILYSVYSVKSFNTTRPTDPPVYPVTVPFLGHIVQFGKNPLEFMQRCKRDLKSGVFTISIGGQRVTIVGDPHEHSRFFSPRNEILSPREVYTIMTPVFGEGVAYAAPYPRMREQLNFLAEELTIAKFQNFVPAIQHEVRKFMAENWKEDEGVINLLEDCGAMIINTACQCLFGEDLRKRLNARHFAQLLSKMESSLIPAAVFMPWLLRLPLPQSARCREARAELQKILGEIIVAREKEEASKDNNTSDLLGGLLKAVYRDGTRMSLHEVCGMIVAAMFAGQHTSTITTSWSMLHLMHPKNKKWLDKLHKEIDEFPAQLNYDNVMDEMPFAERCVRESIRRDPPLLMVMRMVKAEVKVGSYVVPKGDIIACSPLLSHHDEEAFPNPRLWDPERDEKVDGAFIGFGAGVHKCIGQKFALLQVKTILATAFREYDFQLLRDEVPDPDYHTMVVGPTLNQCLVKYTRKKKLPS

| Compound | IC50 [1] [µM] | IC50 [2] [µM] | IC50 [3] [µM] | IC50 [4] [µM] | IC50 [5] [µM] | IC50 [6] [µM] | IC50 [7] [µM] | IC50 [8] [µM] | IC50 [9] [µM] | IC50 [10] [µM] | IC50 at 48 h [11] [µM] | IC50 [12] [µM] |
| --- | --- | --- | --- | --- | --- | --- | --- | --- | --- | --- | --- | --- |
| NCc1csc(Nc2cc(Oc3ccccc3)ncn2)n1 | 31.6 | 25.1 | 31.6 | > 50.1 | > 50.1 | 25.1 | 25.1 | > 50.1 | 0.631 | 0.794 | > 100 | 0.316 |
| COc1cccc(CN(C)Cc2nc(N)c3c(C)c(C)sc3n2)c1 | 6.31 | 15.8 | 15.8 | > 50.1 | 31.6 | 5.01 | 3.16 | 31.6 | 5.01 | 3.98 | 39.8 | > 100 |
| CC(C)Nc1nc(Cl)nc2ccccc12 | 3.98 | 10 | 3.98 | 7.94 | 20 | 2.51 | 1.26 | 20 | 5.01 | 12.6 | 39.8 | > 100 |
| Cc1cc2nc(CN(C)Cc3ncccc3C)[nH]c2cc1C | 0.501 | 1 | 0.501 | 12.6 | 5.01 | 0.631 | 0.501 | 7.94 | 0.631 | 0.631 | 39.8 | 79.4 |
| CC(C)(C)CC(=O)NCc1noc(COc2ccccc2)n1 | 2.82 | 2.51 | 2.51 | > 50.1 | > 50.1 | > 50.1 | > 50.1 | > 50.1 | 0.631 | 0.794 | > 100 | 50.1 |
| O=C(Cn1cnc2c(-c3ccccc3)csc2c1=O)N1CCCCC1 | 3.55 | 3.98 | 3.16 | > 50.1 | > 50.1 | > 50.1 | > 50.1 | > 50.1 | 0.794 | 1 | > 100 | 39.8 |
| CN(CCOc1ccc(Cl)cc1)Cc1nc(N)nc(N(C)C)n1 | 5.01 | 10 | 7.94 | > 50.1 | 15.8 | 7.94 | 5.01 | > 50.1 | 25.1 | 15.8 | > 100 | 31.6 |
| Cc1cc(=O)n2nc(Oc3ccc(C#N)cc3Cl)sc2n1 | 15.8 | 31.6 | 25.1 | 31.6 | 12.6 | 31.6 | 31.6 | 31.6 | 0.631 | 0.316 | 39.8 | > 100 |
| O=C(c1ccc(O)c(Cl)c1)N1CCN(c2cnccn2)CC1 | > 50.1 | > 50.1 | 10 | > 50.1 | 0.316 | 5.01 | 3.16 | > 50.1 | > 39.8 | > 39.8 | > 100 | > 100 |
| O=C1CN(Cc2ccco2)C2CS(=O)(=O)CC2N1c1ccc(Cl)cc1 (stereo unspecified) | > 50.1 | > 50.1 | > 50.1 | > 50.1 | > 50.1 | > 50.1 | > 50.1 | > 50.1 | 0.316 | 0.251 | > 100 | > 100 |
| Cc1nc(-c2ccncc2)ncc1C(C)NC(=O)c1ccc(Cl)s1 (stereo unspecified) | 25.1 | 31.6 | 20 | > 50.1 | > 50.1 | > 50.1 | > 50.1 | > 50.1 | 1 | 1 | > 100 | 0.794 |
| Cn1nc(C(=O)N2CCc3ccccc32)c2c1CCS(=O)(=O)C2 | 7.94 | 12.6 | 7.94 | > 50.1 | 3.98 | 3.98 | 1.58 | > 50.1 | 3.98 | 6.31 | > 100 | > 100 |
| CCc1nn(-c2ncc(F)c(NC(C)C)n2)c(N)c1C1CCCCC1 | 3.55 | 3.16 | 1.58 | 1 | 3.16 | 3.16 | 1.58 | 15.8 | 10 | 15.8 | 31.6 | > 100 |
| C[C@@H](Oc1cc(-n2cnc3cc(N)ccc32)sc1C(N)=O)c1ccccc1Cl | 1.26 | 20 | 5.01 | 1 | 3.16 | 31.6 | 20 | 25.1 | 0.251 | 0.794 | 20 | 3.16 |
| O=C(NCc1nnc2n1CCCCC2)c1csc(-c2ccccc2)n1 | 2.51 | 2 | 2 | > 50.1 | > 50.1 | > 50.1 | > 50.1 | > 50.1 | 0.316 | 0.398 | > 100 | > 100 |
| Cc1nc2c(-c3nc(-c4ccccc4N)n[nH]3)cccn2c1C | 4.47 | 2.51 | 1.58 | 5.01 | 6.31 | 1.58 | 1 | 7.94 | 1 | 2.51 | 15.8 | 3.16 |
| Cc1nc2c(-c3nc(-c4ccc(N)cc4)n[nH]3)cccn2c1C | 6.31 | > 50.1 | > 50.1 | 10 | 3.16 | 2 | 1.58 | 12.6 | 12.6 | 25.1 | 15.8 | > 100 |
| OC[C@@H](Nc1nccc(-c2c(-c3ccc(F)cc3)ncn2C2CCNCC2)n1)c1ccccc1 | 31.6 | 12.6 | 12.6 | 2 | > 50.1 | 31.6 | 31.6 | 31.6 | 0.398 | 0.631 | 100 | 25.1 |
